# According to patent publication US12630804B2, “Blood brain barrier model” (UNIVERSITY OF LANCASHIRE, priority 2016, dated 2026):
# System: blood brain barrier model
# Experiment: Permeability of test/known compounds across the blood brain barrier model (TEER and fluorescence in basolateral compartment)
# Assay type: in vitro ADME, human
# Conditions: added to apical side; TEER and appearance in basolateral compartment, 0.5-6 h; aptamers 100 nM cy5-tagged
# Method: The blood brain barrier model was exposed to a test/known compounds to determine permeability. The final concentration of compound introduced to the apical well was determined previously using a viability assay, and a concentration chosen that minimised toxicity to the BBB cells (<IC50). Test compounds (short DNA oligonucleotide glioma selective aptamers (100 nM) tagged with cy5 (GL21, scrambled) and lipid nanoparticles (NPs) loaded with 0.33 μg/ml docetaxel or 2.87 μg/ml curcumin tagged with rhodamine123 and transferrin ligand) were prepared in house. When the TEER values for the BBB model peaked, 3.33 μg/ml Evans Blue Dye (EBD) was added to the apical side of the BBB model to determine if the barrier formed was intact. The test and control compounds were introduced to the well and time dependent TEER measurements were taken along with fluorescent measurements of samples at time points between 0.5-6 h from the basolateral side of the well for determination of appearance of the fluorescent tagged compounds. […] The activity was calculated as % fluorescence relative to the stock concentration of the NPs and then plotted
# The blood brain barrier model was exposed to a test compound and the permeability of the barrier to said test compound was measured and compared to the permeability of the blood brain barrier model to known compounds. […]
smiles,measurement,value
"Cc1cc(-c2ccc(N=Nc3ccc4c(S(=O)(=O)[O-])cc(S(=O)(=O)[O-])c(N)c4c3O)c(C)c2)ccc1N=Nc1ccc2c(S(=O)(=O)[O-])cc(S(=O)(=O)[O-])c(N)c2c1O.[Na+].[Na+].[Na+].[Na+] [Evan's blue, Evan's Blue]",permeation across blood brain barrier model,no permeability
